This is an account of results in article PMC8457121, “From Kinase Inhibitors to Multitarget Ligands as Powerful Drug Leads for Alzheimer's Disease using Protein‐Templated Synthesis” (Angewandte Chemie (International Ed. in English), 2021).

Molecules are shown by their SMILES.

For orientation: IC50 means the concentration at which inhibition is half-maximal. In general, inhibition refers to the change of the read-out against control, counted positive when it falls.

One series concerns the target T1, LRRK2 (Homo sapiens, UniProt Q5S007).
T1 construct: purchased ThermoFisher (assay run by the company)
As to the kind of experiment: LRRK2 inhibition enzymatic assay (Adapta, ThermoFisher). The class given is biochemical.

The target of another series is T2, Human recombinant GSK3β (Homo sapiens, UniProt P49841).
T2 construct: purchased Millipore (Millipore Ibérica SAU)
T2 sequence (P49841 whole entry): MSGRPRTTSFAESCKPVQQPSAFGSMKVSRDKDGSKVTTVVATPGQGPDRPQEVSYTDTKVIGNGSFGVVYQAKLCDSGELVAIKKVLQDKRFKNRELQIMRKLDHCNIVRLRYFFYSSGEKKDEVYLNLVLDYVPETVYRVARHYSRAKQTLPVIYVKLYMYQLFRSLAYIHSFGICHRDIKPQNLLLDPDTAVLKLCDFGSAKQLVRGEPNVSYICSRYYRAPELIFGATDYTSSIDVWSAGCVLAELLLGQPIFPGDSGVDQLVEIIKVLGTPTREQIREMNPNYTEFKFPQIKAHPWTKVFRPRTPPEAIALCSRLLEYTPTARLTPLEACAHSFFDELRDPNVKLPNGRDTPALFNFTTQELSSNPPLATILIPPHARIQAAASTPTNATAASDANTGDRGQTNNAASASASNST
The experiment in a line: GSK3β inhibition enzymatic assay (Kinase-Glo). The class given is biochemical. Here is the method: GSK3β inhibition enzymatic assay. Human recombinant GSK3β and the pre-phosphorylated polypeptide substrate were purchased from Millipore (Millipore Ibérica SAU). Kinase-Glo Luminescent Kinase Assay was obtained from Promega (Promega Biotech Ibérica, SL). ATP and all other reagents were from Sigma Aldrich (St. Louis, MO). Assay buffer contained 50 mM HEPES (pH 7.5), 1 mM EDTA, 1 mM EGTA, and 15 mM magnesium acetate.
Kinase-Glo assays were performed in assay buffer using black 96-well plates. In a typical assay, 10 μL (10 μM) of test compound (dissolved in DMSO) at 1 mM concentration and diluted in advance in assay buffer to the desired concentration) and 10 μL (20 ng) of enzyme were added to each well followed by 20 μL of assay buffer containing 25 μM substrate and 1 μM ATP. The final DMSO concentration […]
After 30 min incubation at 30 °C, the enzymatic reaction was stopped with 40 μL of Kinase-Glo reagent. Glow-type luminescence was recorded after 10 min using a FLUOstar Optima (BMG
Labtechnologies GmbH, Offenburg, Germany) multimode reader. The activity is proportional to the difference of the total and consumed ATP. The inhibitory activities were calculated based on maximal activities measured in the absence of inhibitor. The IC50 was defined as the concentration of each compound that reduces a 50 % the enzymatic activity with respect to that without inhibitors. […]
For orientation: Kinase-Glo reads ATP consumption through a luciferase reaction.

A further series has as its target BACE1 (Homo sapiens, UniProt P56817). The experiment in a line: BACE1 enzymatic assay (FRET). The format is biochemical.
The next series deals with SK-APP cells. The experiment in a line: Aβ40 and Aβ42 levels in SK-APP cells (sandwich ELISA). The class given is cell-based, human. The conditions noted are these: 10 μM, 48 h treatment. As for the experimental part: page 35: enzyme concentration (1 U/mL). Inhibitor screening at 10 μM. The mixture was incubated for 60 min at 25 °C under dark conditions and then stopped with 2.5 M sodium acetate. Fluorescence was measured with a FLUOstar Optima (BMG Labtechnologies GmbH, Offenburg, Germany) microplate reader at 545 nm excitation and 585 nm emission. Evaluation of BACE Inhibitors Kinetics. To evaluate the mechanism of BACE1 inhibition of the compounds, substrate-dependent kinetic experiments were performed. BACE activity were measured at five different concentrations substrate (1000 -62,5 μM) in the absence or presence of the select inhibitor at two different concentrations. The results are presented as double reciprocal Lineweaver-Burk plots (1/V vs 1/[S]) Figure S1. Cell culture and treatments. SK-N-MC cells stably expressing the human isoform APP695 (SK-APP cell line […]1) were generated by transfection of SK-N-MC cells with a pCDNA3-APP expression vector, and kindly provided by Dr. MJ Bullido. These cells were cultured in DMEM (Thermo Fisher) medium supplemented with 10% FBS (Thermo Fisher), 1 mM glutamine (Sigma- Aldrich), and 100 unit/ml penicillin (Lonza) and […] streptomycin (Lonza). Cell cultures were maintained in a 5% CO2, humidified atmosphere at 37 °C. SH-SY5Y cells were obtained from the American Type Culture Collection and grown in DMEM media (Gibco), supplemented with 10% foetal bovine serum, and 1% penicillin/streptomycin (Invitrogen). The cells were grown at 37 °C in a humidified 5% CO2 atmosphere. For the treatments, all the compounds were dissolved in dimethyl sulfoxide (DMSO, from Sigma) at an initial stock concentration of 10 mM. […] working solutions were obtained from the dilution of the stock solutions in DMEM media (DMSO control solutions were prepared similarly to the compounds). Okadaic acid (OA, Sigma-Aldrich) was dissolved in DMSO at an initial stock concentration of 60 μM and a 250X working solution was obtained from the dilution of the stock solution in DMEM. All the compounds (250x solutions) were added directly into the wells at the indicated final concentrations for 1 hour before the treatment with OA at a final concentration of 30 nM. DMSO was added at the appropriate concentration to the 34 page 36: control-untreated cells. The cells were maintained in the presence of the OA and the different compounds for 24h. Measurement of cell viability. Cell viability assays were carried out using a 3- […] (Sigma-Aldrich) in 96-well cell culture plates. All cells were then incubated with a 0.5 mg/ml MTT solution (Sigma-Aldrich) at 37 °C for 4 h and then with cell lysis […] The absorbance values were determined at 590 nm. Cell viability was expressed as a percent of OD of control cells, the value of which was defined as 100%. Cell viability in SH-SY5Y were carried out following the same procedure but seeding the cells in 24 well multiplates. Absorbance was measured using a Varioskan Flash multiplate reader (Thermo Scientific) at test 550 nm and reference 664 nm wave-lengths. Compound concentration for SK-APP line was 10 μM and for the SH-SY5Y was 1 and 5 μM. Immunoassays. Levels of Aβ40 and Aβ42 were quantified by sandwich ELISAs (Wako, Osaka, Japan) from cellular lysates and conditioned media collected. CNS penetration: in vitro PAMPA-BBB test. Prediction of the brain penetration was evaluated using a parallel artificial membrane permeability assay (PAMPA).1 Nine quality control compounds (mentioned below) of know BBB permeability were included in each experiment to validate the analysis set.2 Commercial drugs […] dissolved in 250 μL of DMSO (Sigma-Aldrich). 25 μL of these compound stock solutions were taken and 225 μL of DMSO and 4750 μL of PBS pH 7.4 buffer were added to reach 5% of DMSO concentration in the experiment and a final […] Compounds to be determined their ability to pass the brain barrier (0.5-1 mg) were dissolved in 250 μL of DMSO and 4750 μL of PBS pH 7.4 was carefully added to afford a final […]
A general note: In an ELISA, binding on a coated surface is turned into a signal by an enzyme label.

The next series relates to SH-SY5Y cells. The experiment in a line: Okadaic acid-induced cell death model, viability of SH-SY5Y cells. The format is cell-based, human. As to conditions: OA 30 nM, 24 h, compound 1 and 5 µM. As for the experimental part:
page 35: enzyme concentration (1 U/mL). Inhibitor screening at 10 μM. The mixture was incubated for 60 min at 25 °C under dark conditions and then stopped with 2.5 M sodium acetate. Fluorescence was measured with a FLUOstar Optima (BMG Labtechnologies GmbH, Offenburg, Germany) microplate reader at 545 nm excitation and 585 nm emission. Evaluation of BACE Inhibitors Kinetics. To evaluate the mechanism of BACE1 inhibition of the compounds, substrate-dependent kinetic experiments were performed. BACE activity were measured at five different concentrations substrate (1000 -62,5 μM) in the absence or presence of the select inhibitor at two different concentrations. The results are presented as double reciprocal Lineweaver-Burk plots (1/V vs 1/[S]) Figure S1. Cell culture and treatments. […] The absorbance values were determined at 590 nm. Cell viability was expressed as a percent of OD of control cells, the value of which was defined as 100%. […] Absorbance was measured using a Varioskan Flash multiplate reader (Thermo Scientific) at test 550 nm and reference 664 nm wave-lengths. […] Levels of Aβ40 and Aβ42 were quantified by sandwich ELISAs (Wako, Osaka, Japan) from cellular lysates and conditioned media collected. […] Compounds to be determined their ability to pass the brain barrier (0.5-1 mg) were dissolved in 250 μL of DMSO and 4750 μL of PBS pH 7.4 was carefully added to afford a final […]

The next series is described as follows: PAMPA-BBB test. The format is in vitro ADME. The conditions noted are these: PAMPA-BBB. Background: In PAMPA a lipid-coated filter parts donor from acceptor wells.
Another series has as its target CK1δ (Homo sapiens, UniProt P48730). The experiment in a line: CK1δ inhibition enzymatic assay (Kinase-Glo). The class given is biochemical. Here is the method:
CK1δ inhibition enzymatic assay. The “Kinase-Glo” Kit from Promega was used to screen compounds for activity against CK1δ Kinase-Glo assays were performed in assay buffer using black 96-well plates. In a typical assay, 10 μl of test compound (dissolved in DMSO at 1 mM concentration and diluted in advance in assay buffer to the desired concentration) 10 μl (16 ng) of enzyme were added to each well followed by 20 µl of assay buffer containing 0,1 % casein as substrate […]
exceed 1%. After 60-min incubation at 30°C the enzymatic reaction was stopped […]
with 40 μl of Kinase-Glo reagent. Glow-type luminescence was recorded after 10 min using a FLUOstar Optima (BMG Labtechnologies GmbH, Offenburg, Germany) multimode reader. The activity is proportional to the difference of the total and consumed ATP. The inhibitory activities were calculated on the basis of maximal activities measured in the absence of inhibitor. The IC50 was defined as the concentration of each compound that reduces a 50% the enzymatic activity with respect to that without inhibitors. […]
Ibérica SAU). Kinase-Glo Luminescent Kinase Assay was obtained from Promega (Promega Biotech Ibérica, SL). ATP and all other reagents were from Sigma Aldrich (St. Louis, MO). Assay buffer contained 50 mM HEPES (pH 7.5), 1 mM EDTA, 1 mM EGTA, and 15 mM magnesium acetate. […]

Sequence of BACE1 (P56817 46-501): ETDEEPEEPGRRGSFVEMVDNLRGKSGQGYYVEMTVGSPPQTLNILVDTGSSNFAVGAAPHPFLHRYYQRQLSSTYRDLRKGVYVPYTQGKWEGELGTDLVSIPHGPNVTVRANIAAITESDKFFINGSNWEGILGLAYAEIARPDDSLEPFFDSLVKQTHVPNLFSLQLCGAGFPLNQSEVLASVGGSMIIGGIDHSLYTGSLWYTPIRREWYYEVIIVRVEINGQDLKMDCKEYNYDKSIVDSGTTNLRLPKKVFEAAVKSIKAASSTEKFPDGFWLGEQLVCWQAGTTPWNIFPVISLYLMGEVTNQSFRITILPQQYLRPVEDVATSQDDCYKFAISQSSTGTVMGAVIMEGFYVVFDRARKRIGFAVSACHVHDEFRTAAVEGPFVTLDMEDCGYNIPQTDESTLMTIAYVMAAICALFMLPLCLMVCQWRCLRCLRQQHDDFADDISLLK
T1 sequence (Q5S007 whole entry): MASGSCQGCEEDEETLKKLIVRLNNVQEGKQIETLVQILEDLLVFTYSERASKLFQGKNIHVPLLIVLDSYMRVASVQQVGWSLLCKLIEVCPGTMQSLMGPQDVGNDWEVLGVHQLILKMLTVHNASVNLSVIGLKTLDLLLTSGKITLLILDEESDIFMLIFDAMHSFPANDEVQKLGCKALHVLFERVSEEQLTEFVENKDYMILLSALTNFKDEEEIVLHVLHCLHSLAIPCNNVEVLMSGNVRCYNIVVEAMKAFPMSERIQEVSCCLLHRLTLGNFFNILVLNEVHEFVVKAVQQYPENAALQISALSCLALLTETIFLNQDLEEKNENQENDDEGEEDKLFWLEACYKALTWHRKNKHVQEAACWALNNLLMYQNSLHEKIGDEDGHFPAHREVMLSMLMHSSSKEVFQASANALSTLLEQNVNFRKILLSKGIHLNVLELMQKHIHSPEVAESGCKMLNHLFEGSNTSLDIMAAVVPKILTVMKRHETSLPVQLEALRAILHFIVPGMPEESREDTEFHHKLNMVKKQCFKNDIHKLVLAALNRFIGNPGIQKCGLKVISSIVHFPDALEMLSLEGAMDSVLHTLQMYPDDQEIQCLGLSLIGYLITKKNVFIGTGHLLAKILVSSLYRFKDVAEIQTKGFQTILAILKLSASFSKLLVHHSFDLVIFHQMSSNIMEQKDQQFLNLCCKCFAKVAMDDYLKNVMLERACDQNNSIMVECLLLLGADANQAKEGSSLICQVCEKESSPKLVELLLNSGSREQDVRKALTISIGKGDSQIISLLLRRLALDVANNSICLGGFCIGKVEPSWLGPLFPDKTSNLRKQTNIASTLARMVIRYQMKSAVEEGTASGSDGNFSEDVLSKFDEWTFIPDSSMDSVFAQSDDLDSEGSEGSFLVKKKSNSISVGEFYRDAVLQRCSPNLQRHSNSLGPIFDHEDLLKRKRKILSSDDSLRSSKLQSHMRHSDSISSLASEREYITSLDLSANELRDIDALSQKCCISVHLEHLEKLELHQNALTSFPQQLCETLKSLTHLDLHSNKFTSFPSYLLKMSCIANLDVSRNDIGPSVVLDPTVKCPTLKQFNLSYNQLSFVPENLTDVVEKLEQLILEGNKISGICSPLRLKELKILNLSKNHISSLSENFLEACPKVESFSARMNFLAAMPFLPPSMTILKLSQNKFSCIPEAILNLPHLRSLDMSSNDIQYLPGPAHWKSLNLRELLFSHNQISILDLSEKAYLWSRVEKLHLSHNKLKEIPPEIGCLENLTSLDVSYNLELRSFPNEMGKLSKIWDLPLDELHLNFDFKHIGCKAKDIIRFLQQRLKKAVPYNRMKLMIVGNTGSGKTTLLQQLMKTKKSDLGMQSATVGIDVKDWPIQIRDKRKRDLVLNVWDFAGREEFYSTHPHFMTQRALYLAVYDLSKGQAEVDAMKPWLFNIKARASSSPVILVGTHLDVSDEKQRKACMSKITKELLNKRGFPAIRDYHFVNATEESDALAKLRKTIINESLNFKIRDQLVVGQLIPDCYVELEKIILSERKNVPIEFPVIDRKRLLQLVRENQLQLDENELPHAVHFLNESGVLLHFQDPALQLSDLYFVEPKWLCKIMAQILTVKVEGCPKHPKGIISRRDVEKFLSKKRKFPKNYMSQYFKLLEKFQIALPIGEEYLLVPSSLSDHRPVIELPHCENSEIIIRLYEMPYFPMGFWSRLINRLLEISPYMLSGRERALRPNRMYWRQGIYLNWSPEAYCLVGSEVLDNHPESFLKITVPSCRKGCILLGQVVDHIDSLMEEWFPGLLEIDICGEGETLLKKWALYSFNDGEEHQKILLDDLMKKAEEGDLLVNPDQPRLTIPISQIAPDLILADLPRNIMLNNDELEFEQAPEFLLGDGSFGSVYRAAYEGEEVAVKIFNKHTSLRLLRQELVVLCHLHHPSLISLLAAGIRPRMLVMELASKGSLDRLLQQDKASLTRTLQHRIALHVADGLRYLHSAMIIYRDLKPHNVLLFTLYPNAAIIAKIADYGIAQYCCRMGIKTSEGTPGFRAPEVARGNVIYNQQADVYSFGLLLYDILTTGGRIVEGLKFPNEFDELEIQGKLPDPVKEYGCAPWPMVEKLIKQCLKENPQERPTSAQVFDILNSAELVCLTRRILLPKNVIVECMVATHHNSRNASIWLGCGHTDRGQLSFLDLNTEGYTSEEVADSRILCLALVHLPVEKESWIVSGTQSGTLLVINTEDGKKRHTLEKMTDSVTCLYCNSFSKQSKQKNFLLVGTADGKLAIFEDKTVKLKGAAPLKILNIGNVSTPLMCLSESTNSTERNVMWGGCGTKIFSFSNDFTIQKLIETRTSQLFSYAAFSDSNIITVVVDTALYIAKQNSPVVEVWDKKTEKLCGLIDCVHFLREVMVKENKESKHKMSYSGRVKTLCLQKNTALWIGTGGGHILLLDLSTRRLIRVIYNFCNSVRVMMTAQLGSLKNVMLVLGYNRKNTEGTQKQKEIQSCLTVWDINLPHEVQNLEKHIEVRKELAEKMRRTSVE
Sequence of CK1δ (P48730 whole entry): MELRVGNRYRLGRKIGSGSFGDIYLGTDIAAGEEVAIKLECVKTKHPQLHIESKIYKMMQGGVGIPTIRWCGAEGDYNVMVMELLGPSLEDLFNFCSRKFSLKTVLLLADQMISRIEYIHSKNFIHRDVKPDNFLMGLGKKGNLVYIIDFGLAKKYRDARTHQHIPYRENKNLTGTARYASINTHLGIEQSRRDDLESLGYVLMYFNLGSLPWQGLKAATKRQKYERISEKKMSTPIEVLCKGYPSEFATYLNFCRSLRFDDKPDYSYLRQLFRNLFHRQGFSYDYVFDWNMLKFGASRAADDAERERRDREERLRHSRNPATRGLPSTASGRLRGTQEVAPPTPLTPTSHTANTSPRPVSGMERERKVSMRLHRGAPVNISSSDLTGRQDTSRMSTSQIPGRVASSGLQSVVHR
Description for BACE1: BACE1 enzymatic assay. BACE1 in vitro assays were carried out using FRET.
μM) carrying the Swedish mutation and containing a rhodamine as a fluorescence donor and a quencher acceptor at each end was used. The intact substrate is weakly fluorescent and becomes highly fluorescent upon enzymatic cleavage.
The assays were conducted in 50 mM sodium acetate buffer, pH 4.5, in a final
Description for PAMPA-BBB test: dissolved in 250 µL of DMSO (Sigma-Aldrich). 25 µL of these compound stock
solutions were taken and 225 µL of DMSO and 4750 µL of PBS pH 7.4 buffer
compound concentration in the range of 0.2 to 1.1 mM. Compounds to be
µL of DMSO and 4750 µL of PBS pH 7.4 was carefully added to afford a final
compound concentration in the range of 0.2 to 1.1 mM. Solutions were filtered
using filter PDVF membrane units (diameter 30 mm, pore size 0.45 μm, Symta).
10 µL of each solution were taken and diluted 10-fold with PBS/DMSO (95/5) for
HPLC-MS analysis. The acceptor 96-well plate (Multiscreen®, catalog no.
MAMCS9610, Millipore) was filled with 180 µL of PBS/DMSO (95/5). The donor
96-well plate (Multiscreen® IP Sterile Plate PDVF membrane, pore size is 0.45
M, catalog no. MAIPS4510, Millipore) was coated with 4 µL 20 mg·mL-1 of
for 5 min and then 180 µL of each compound solution was added. Then the donor
plate was put on the acceptor plate and kept for 2.5 h at room temperature. After
incubation, samples were collected from the acceptor plate and diluted 10-fold
with PBS/DMSO (95/5) for HPLC-MS analysis and compared to HPLC-MS of
initial solutions. Absorbance peak of each compound was determined by MS
detection and was used to calculate the concentration of compounds and
Every sample was analysed in two independent
runs. HPLC-MS was performed using a HPLC-MS equipment from Thermo
Fisher coupled to a Finnigan TM LXQ TM detector. Each compound was
analysed using a Sunfire column C18, 3.5 μm (50 mm x 4.6 mm) and acetonitrile
and Milli-Q water (with 0.1% formic acid) as mobile phase. The standard gradient

On to `CCn1sc(=O)n(Cc2cn(Cc3ccc(C(=O)Nc4nc5ccccc5s4)cc3)nn2)c1=O` [compound 14], for which the IC50 against LRRK2 was found to be 820 ± 140 nM; at Human recombinant GSK3β, 2360 ± 270 nM; on BACE1, 3310 ± 270 nM. In the series with SK-APP cells, the “Aβ42 levels in cellular lysates (intracellular)” value is recorded as “unchanged”. Further, the “Aβ42 levels in extracellular fluid” value in the series on SK-APP cells is “significant decrease”. For the same compound, the “Neuroprotection against okadaic acid (OA) toxicity” value with SH-SY5Y cells is reported as “rescue from the toxic effect of OA”. Also, the CNS prediction result in the series “PAMPA-BBB test” is “CNS- (CNS‐ (red) for compounds with Pe <1.88×10^−6 cm s^−1)”. The Pe exp in “PAMPA-BBB test” (PBS pH 7.4/DMSO 95/5, 2.5 h, room temperature) is 0 10-6 cm s-1.
On to `CCn1sc(=O)n(Cc2cn(Cc3ccc(CC(=O)Nc4nc5ccccc5s4)cc3)nn2)c1=O` [compound 15], for which, on CK1δ, the IC50 came to 1250 ± 210 nM. In addition, on Human recombinant GSK3β, the IC50 was 3850 ± 320 nM. For the same compound, the inhibition at 10 µM on BACE1 (read-out: BACE1 enzyme inhibition at 10 μM) is 30%. In addition, in the series on SK-APP cells, the “Aβ40 levels in cellular lysates” value was “decrease”, the “Aβ40 levels in extracellular fluid” value is recorded as “decrease”, the “Aβ42 levels in cellular lysates (intracellular)” value was “unchanged” and the “Aβ42 levels in extracellular fluid” value is reported as “significant decrease”. Besides, the “Neuroprotection against okadaic acid (OA) toxicity” value in the series on SH-SY5Y cells is recorded as “rescue from the toxic effect of OA”. For the same compound, in the series “PAMPA-BBB test”, the CNS prediction entry is recorded as “CNS+ (CNS+ (green) for compounds with Pe >3.20×10^−6 cm s^−1)”. Also, the Papp at 2.5 h in “PAMPA-BBB test” (PBS pH 7.4/DMSO 95/5, 2.5 h, room temperature, read-out: Pe exp) was found to be 5.08 ± 0.63 ×10⁻⁶ cm/s.
